The values below come from paper PMC9389588, “1,6-epi-Cyclophellitol Cyclosulfamidate Is a Bona Fide Lysosomal α-Glucosidase Stabilizer for the Treatment of Pompe Disease” (Journal of the American Chemical Society, 2022).

Structures are written as SMILES. Where “and” joins values, the source holds several entries; their conditions need not be identical. Equal entries are not always repeated. Some results are limits rather than exact numbers.

The target in experiment [1] is α-glucosidase GAA (Myozyme) (Homo sapiens, UniProt P10253). As to the kind of experiment: in vitro apparent IC50, GAA (Myozyme), 4-MU-α-D-glucopyranoside. It is filed as biochemical. More on the design: purchased Sanofi Genzyme. The settings on record: Myozyme 47 nM, pH 4.0, 30 min preincubation, mean ± SD.
Experiment [2] concerns the target T1, β-glucosidase GBA1 (Cerezyme) (Homo sapiens, UniProt P04062, R534H).
T1 construct: purchased
T1 sequence (P04062 40-536 R534H): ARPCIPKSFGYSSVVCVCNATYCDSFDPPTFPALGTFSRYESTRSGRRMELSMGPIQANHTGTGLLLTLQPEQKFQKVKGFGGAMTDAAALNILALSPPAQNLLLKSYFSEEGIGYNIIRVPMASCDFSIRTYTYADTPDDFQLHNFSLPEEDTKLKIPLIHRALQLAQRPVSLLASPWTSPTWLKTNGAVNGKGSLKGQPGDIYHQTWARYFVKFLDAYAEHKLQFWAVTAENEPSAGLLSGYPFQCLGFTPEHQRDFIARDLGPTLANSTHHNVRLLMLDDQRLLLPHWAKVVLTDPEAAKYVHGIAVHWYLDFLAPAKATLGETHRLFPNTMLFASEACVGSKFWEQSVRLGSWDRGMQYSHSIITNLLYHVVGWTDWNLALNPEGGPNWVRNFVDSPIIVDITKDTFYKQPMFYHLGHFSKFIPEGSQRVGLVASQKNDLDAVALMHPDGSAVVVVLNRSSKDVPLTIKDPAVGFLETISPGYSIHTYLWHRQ
Briefly: in vitro apparent IC50, GBA1 (Cerezyme), 4-MU-β-D-glucopyranoside. Type of experiment: biochemical. Particulars: pH 5.2, mean ± SD, read-out: in vitro GBA IC50.

The target of experiment [3] is T2, ER α-glucosidase II (GANAB) (Homo sapiens, UniProt Q14697).
T2 construct: GANAB (from Pompe Disease Fibroblast Lysates); endogenous in cells; host or cells: human fibroblasts (lysate)
T2 sequence (Q14697 29-944): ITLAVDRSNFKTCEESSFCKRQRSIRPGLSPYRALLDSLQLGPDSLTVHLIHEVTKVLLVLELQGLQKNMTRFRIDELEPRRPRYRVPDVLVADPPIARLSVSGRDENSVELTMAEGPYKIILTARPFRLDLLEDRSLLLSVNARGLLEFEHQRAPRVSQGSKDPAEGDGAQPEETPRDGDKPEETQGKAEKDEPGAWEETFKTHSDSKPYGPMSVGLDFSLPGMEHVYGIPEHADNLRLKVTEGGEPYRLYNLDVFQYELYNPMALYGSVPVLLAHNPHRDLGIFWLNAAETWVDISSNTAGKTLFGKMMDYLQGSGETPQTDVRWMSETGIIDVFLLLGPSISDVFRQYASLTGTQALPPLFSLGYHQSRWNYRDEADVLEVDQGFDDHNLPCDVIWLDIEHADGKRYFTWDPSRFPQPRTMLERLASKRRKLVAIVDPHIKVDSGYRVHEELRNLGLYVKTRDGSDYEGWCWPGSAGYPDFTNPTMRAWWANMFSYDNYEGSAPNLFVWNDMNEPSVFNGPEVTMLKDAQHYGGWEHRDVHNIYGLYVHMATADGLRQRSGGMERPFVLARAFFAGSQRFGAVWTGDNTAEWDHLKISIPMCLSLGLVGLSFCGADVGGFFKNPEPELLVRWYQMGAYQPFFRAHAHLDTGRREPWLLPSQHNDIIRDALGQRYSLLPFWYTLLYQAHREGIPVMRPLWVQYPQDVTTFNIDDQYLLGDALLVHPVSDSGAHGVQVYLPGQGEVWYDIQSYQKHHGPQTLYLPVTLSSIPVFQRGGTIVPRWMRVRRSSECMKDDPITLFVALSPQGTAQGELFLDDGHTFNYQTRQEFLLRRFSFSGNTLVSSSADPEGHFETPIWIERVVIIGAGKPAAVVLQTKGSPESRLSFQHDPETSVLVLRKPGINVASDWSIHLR
T2 sequence (P14314 15-528 partner): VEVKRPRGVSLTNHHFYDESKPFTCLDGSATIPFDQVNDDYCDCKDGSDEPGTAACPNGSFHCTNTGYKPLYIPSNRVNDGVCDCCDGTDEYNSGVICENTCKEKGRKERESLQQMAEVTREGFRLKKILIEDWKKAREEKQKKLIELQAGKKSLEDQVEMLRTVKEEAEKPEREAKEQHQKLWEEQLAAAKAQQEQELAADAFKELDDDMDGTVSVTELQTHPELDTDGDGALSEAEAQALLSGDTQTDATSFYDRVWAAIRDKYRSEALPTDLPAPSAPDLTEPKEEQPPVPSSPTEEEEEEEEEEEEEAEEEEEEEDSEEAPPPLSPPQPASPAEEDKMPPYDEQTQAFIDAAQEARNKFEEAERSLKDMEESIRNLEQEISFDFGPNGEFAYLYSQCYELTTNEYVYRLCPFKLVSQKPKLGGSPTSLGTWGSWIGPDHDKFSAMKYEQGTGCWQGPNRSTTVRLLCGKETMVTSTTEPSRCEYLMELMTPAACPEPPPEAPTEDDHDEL
Briefly: in vitro apparent IC50, GANAB in fibroblast lysates, 4-MU-α-D-glucopyranoside. Type of experiment: biochemical. Particulars: for IC50: apparent IC50, Pompe disease fibroblast lysates, pH 7.0, mean ± SD.

The target in the next experiment is T3, β-glucosidase GBA2 (Homo sapiens, UniProt Q9HCG7).
T3 construct: expressed in transfected cells; host or cells: HEK293T
T3 sequence (Q9HCG7 1-927): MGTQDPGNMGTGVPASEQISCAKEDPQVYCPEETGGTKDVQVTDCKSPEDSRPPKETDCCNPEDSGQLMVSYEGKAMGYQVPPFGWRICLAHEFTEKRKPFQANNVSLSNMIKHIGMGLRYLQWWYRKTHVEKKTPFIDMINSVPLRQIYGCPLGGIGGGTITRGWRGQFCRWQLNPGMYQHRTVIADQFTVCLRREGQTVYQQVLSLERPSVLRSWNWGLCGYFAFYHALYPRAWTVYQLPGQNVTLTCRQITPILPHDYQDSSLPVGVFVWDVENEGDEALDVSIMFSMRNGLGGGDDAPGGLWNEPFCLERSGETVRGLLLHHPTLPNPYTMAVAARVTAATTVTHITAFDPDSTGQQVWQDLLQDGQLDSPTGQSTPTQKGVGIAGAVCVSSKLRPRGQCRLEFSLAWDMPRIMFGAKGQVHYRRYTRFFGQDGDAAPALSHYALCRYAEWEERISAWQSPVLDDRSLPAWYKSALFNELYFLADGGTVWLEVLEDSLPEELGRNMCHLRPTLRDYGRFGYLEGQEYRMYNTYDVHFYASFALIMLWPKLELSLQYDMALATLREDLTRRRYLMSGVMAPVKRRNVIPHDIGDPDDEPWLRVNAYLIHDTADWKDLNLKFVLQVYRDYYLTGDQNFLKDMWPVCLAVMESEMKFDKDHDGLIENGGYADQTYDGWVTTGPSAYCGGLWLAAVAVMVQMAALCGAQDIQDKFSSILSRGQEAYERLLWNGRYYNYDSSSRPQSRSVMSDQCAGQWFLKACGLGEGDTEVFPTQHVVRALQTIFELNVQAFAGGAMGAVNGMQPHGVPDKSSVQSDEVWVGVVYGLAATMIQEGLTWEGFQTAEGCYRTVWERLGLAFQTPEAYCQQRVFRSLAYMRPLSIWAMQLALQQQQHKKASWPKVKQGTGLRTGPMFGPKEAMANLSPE
As to the kind of experiment: in vitro apparent IC50, GBA2-overexpressing HEK293T lysate. The settings on record: for IC50: apparent IC50, pH 5.8, mean ± SD. It is filed as biochemical.

The target in experiment [4] is T4, glucosylceramide synthase (GCS) (Mus musculus, UniProt O88693).
T4 construct: endogenous in cells; host or cells: RAW 264.7
T4 sequence (O88693 1-394): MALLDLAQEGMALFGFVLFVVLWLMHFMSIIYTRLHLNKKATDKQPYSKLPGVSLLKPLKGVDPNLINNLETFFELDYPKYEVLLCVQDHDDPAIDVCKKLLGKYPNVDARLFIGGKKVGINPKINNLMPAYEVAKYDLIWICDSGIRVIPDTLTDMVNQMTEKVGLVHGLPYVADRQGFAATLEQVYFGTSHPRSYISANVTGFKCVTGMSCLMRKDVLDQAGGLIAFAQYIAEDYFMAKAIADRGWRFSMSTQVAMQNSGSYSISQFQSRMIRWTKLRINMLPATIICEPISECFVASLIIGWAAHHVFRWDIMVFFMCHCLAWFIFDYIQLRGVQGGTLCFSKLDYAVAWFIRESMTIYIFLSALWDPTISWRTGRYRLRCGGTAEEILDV
Briefly: in situ cell inhibition of GCS in RAW 264.7 cells, glucosylation of C6-NBD-ceramide. Particulars: mean ± SD. It is filed as cell-based.

With `O=S1(=O)O[C@@H]2[C@H](O)[C@@H](O)[C@H](O)[C@@H](CO)[C@@H]2O1` [compound 3, 1,6-epi-cyclophellitol cyclosulfate, reference compound], the 50% inhibitory concentration (IC50) (as a rule, the concentration that gives 50% inhibition) is 0.048 µM in experiment [1], > 500 µM in experiment [2] and 0.026 µM in experiment [3]. Further, the inhibition (usually the share of the control response that was lost under treatment) at 500 µM on β-glucosidase GBA2 (at 500 μM) worked out at 62%.
Turning to `CN1[C@@H]2[C@H](O)[C@@H](O)[C@H](O)[C@@H](CO)[C@@H]2OS1(=O)=O` [compound 5], the 50% inhibitory concentration (IC50) was 485 ± 146 µM in experiment [1], > 500 µM in experiment [2], > 500 µM in experiment [3] and 393 ± 93.7 µM at β-glucosidase GBA2. Besides, the “activity toward GANAB, in words” value in experiment [3] is “inactive”.
Regarding `CN1[C@H]2[C@H](CO)[C@@H](O)[C@H](O)[C@@H](O)[C@H]2OS1(=O)=O` [compound 7], the IC50 in experiment [1] is > 1000 µM; in experiment [4], > 50 µM; in experiment [2] it was 93 µM and 93.4 µM; in experiment [3] it was 132 ± 11.8 µM; at β-glucosidase GBA2, 652 ± 87.3 µM.
With `O=S1(=O)N[C@@H]2[C@H](O)[C@@H](O)[C@H](O)[C@@H](CO)[C@@H]2N1` [compound 8], the half-inhibitory concentration (IC50) in experiment [1] is > 500 µM; in experiment [4], > 50 µM; in experiment [2], > 500 µM; in experiment [3] it was > 500 µM; at β-glucosidase GBA2, > 500 µM.
